The text below walks through data of patent publication US5177112A, “Substituted 2-aminotetralins” (Whitby Research, Inc., priority 1991, dated 1993).

Like-named read-outs stand apart in the source and are kept apart here.

Experiment [1] deals with intraocular pressure. Conditions: rabbits; cited from earlier work.
Experiment [2] relates to intraocular pressure. Conditions: monkeys; cited from earlier work.
The next experiment deals with ocular function. Conditions: in vivo; cited from earlier work.
For a further experiment, the target named is T1, α2-adrenergic receptors (Rattus norvegicus, UniProt P22909).
T1 construct: from tissue; host or cells: cerebral cortex membranes of male Sprague Dawley rats
T1 sequence (P22909 1-465): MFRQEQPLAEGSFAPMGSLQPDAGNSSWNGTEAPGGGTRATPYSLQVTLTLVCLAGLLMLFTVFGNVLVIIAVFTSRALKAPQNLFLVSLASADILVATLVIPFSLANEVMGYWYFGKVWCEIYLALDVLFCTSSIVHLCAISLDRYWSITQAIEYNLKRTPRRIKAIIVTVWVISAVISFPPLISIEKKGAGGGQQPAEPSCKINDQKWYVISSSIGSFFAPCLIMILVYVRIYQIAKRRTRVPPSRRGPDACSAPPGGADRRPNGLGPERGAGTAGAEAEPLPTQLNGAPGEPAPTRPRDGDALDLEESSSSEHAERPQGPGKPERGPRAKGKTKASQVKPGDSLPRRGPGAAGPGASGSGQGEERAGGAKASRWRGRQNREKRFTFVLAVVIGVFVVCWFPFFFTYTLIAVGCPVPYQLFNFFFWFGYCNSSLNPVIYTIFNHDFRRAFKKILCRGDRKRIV
Kind of experiment: α2-adrenergic receptor specific binding, [3H]-Para aminoclonidine. Here is the method: (§1) Dopamine receptor assays: Specific binding studies to test the affinity of the compounds for D1, D2 and α2 receptors were conducted using bovine caudate nuclei prepared as follows:
α2-adrenergic receptors assays were conducted using the rat cerebral cortex prepared as follows:
Male Sprague Dawley rats were killed by decapitation and the brains removed. The cerebral cortices were homogenized in 50 mM Tris; 2 mM MgCl2 (pH 7.4), and centrifuged at 40,000×g for 10 minutes. The pellet was washed once, resuspended in Tris/MgCl2 and incubated with 8 units/ml adenosine deaminase at 37° C. for 30 minutes. The homogenate was centrifuged, washed once, resuspended to a protein concentration of 5-10 mg/ml and frozen at -70° C. until use.
(§2) The following tritiated drugs were used as radioligands in the binding studies:
[^3 H]-Para aminoclonidine 48-52 Ci/mmol for α2 -adrenergic receptors.
[^3 H]-paraaminoclonidine was obtained from Amersham, Arlington Heights, Ill. Yohimbine was obtained from Sigma Chemical Co., St. Louis, Mo.
(§3) The radioligands were incubated with various concentrations of competing drug and the appropriate membrane source for 75 minutes at room temperature for D2 receptors, 15 minutes at 37° C. for D1 receptors, or 30 minutes at room temperature for α2 receptors. Specific binding was defined using 1 μM butaclamol (D2), 1 μM SCH23390 (D1), or 1 μM yohimbine (α2). In addition the D2 assays contained 30 nM ketaserin in order to block the binding of ^3 H-spiperone to 5HT2 receptors. The assays were terminated by filtration using a 24-port Brandell cell harvester over filters that had been previously soaked in 0.1% polyethyleneimine, and the filters were washed three times by filtration of cold buffer. […] The results are presented as Ki values if the data were best fitted to a one-site model, or as KH and KL values if a two-site model produced the better fit.

Another experiment addresses T2, D2 receptors (Bos taurus, UniProt P20288).
T2 construct: The caudate nuclei were dissected out and homogenized in Buffer A; from tissue; host or cells: bovine caudate nuclei membranes (brains from a local slaughterhouse)
Kind of experiment: D2 receptor specific binding, [3H]-Spiperone. Conditions: for Ki: bovine caudate nuclei, [3H]-Spiperone, 30 nM ketanserin, 75 minutes at room temperature; for increase in selectivity for D2 receptors: compared to the thienyl compound. Further details: species or system bovine. Here is the method:
as §1
(§4) Bovine brains were obtained fresh from a local slaughterhouse. The caudate nuclei were dissected out and homogenized in Buffer A (50 mM Tris; 1 mM Na2 -EDTA; 5 mM KCl; 1 mM MgCl2; 2 mM CaCl2; pH 7.4) using a Brinkman Polytron. The homogenate was centrifuged at 40,000×g for 20 minutes and washed once. The pellett was resuspended in Buffer A, incubated at 37° C. for 15 minutes, then centrifuged. The pellet was washed once more, resuspended to a protein concentration of 5-10 mg/ml in Buffer A and frozen at -70° C. until used.
as §2
[^3 H]-Spiperone 21-24 Ci/mmol for D2 receptors
(§5) [^3 H]-spiperone, [^3 H]-SCH22390, and [^3 H]-ketanserin were obtained from New England Nuclear, Boston, Me.
as §3

The target of a further experiment is T3, D1 receptors (Bos taurus, UniProt Q95136).
T3 construct: The caudate nuclei were dissected out and homogenized in Buffer A; from tissue; host or cells: bovine caudate nuclei membranes (brains from a local slaughterhouse)
Kind of experiment: D1 receptor specific binding, [3H]-SCH23390. Details: species or system bovine. The protocol:
as §1, §4, §2, §5, §3

Experiment [3] concerns the target T4, D-2 dopamine receptor (Bos taurus, UniProt P20288). Kind of experiment: displacement of specific D-2 dopamine receptor binding of tritiated racemic 2-(N-propyl-N-2-thienylethylamino)-5-hydroxytetralin. Further details: homogenates of calf brain corpus striatum; from tissue; host or cells: calf brain corpus striatum homogenate; species or system calf. Here is the method:
The pharmacological activity of the product of Example 2 was determined by examining its ability to displace the specific D-2 dopamine receptor binding of a tritium-containing racemic mixture of 2-(N-propyl-N-2-thienylethylamino)-5-hydroxytetralin to homogenates of calf brain corpus striatum.

Experiment [4] concerns intraocular pressure. Conditions: man; eyedrops; cited from earlier work.
In another experiment the target is T5, D-1 dopamine receptor (Bos taurus, UniProt Q95136).
T5 construct: membranes isolated from the striatum of bovine brain; from tissue; host or cells: bovine brain striatum membranes
Kind of experiment: displacement of tritium labeled SCH 23390 at the D-1 dopamine receptor, striatum membranes. It counts as binding. Conditions: bovine brain striatum membranes. Here is the method: The activity at the D-1 dopamine receptor was tested by the method described in Raisman et al. Eur. J. Pharmacol 113: (1985), pp. 467-468, which utilizeds membranes isolated from the striatum of bovine brain. […] Thus, the 1C50 value for the compound of Example 2 is >100,000 at the D-1 receptor.

The target in experiment [5] is T4, D-2 dopamine receptor. Conditions: stated for contrast, no test data given; cited from earlier work.
[6] abbreviates: rat cerebral cortex, [3H]-Para aminoclonidine, 30 minutes at room temperature, read-out: Ki α2.
[7] abbreviates: bovine caudate nuclei, [3H]-SCH23390, 15 minutes at 37° C., read-out: Ki D1.

T3 sequence (Q95136 whole entry): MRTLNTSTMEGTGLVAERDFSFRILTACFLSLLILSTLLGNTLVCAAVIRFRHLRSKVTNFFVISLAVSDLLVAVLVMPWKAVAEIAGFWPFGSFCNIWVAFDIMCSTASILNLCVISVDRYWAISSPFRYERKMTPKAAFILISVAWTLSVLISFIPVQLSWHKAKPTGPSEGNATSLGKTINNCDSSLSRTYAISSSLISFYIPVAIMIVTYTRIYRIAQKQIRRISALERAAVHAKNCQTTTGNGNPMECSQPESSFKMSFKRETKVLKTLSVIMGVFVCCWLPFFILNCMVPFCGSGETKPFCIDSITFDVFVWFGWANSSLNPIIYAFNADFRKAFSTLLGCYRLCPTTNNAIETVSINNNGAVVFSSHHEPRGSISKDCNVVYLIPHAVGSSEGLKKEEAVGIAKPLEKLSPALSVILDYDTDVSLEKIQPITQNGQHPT
T2 sequence (P20288 whole entry): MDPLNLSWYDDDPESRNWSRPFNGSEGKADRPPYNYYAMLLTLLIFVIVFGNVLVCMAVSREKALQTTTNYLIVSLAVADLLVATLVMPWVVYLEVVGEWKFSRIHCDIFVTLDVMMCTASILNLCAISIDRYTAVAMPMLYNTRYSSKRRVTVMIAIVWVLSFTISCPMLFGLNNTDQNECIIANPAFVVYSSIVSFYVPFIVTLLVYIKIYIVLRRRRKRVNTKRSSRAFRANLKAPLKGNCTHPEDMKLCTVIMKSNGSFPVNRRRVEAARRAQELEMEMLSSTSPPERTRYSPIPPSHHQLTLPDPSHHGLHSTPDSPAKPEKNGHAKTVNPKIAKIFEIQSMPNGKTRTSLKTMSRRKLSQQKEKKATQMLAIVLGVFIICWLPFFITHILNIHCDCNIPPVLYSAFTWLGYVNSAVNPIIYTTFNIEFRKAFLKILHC
T4 sequence (P20288 whole entry): as above
T5 sequence (Q95136 whole entry): as the sequence (Q95136 whole entry) above

On to `CN1C[C@H](CC#N)C[C@@H]2c3cccc4[nH]c(Cl)c(c34)C[C@H]21` [lergotrile], for which the intraocular pressure entry with intraocular pressure [1] was “lower the intraocular pressure of rabbits”; in the experiment with intraocular pressure [2], “lowered the intraocular pressure of monkeys”.

As for `CCCN1C[C@H](CSC)C[C@@H]2c3cccc4[nH]cc(c34)C[C@H]21` [pergolide], the values for the intraocular pressure result in the experiment with intraocular pressure [1] and with intraocular pressure [2] were “lower the intraocular pressure of rabbits” and “lowered the intraocular pressure of monkeys”, respectively.

As to `CCCN(CCC)CCc1ccc(O)c(O)c1` [N,N-di-n-propyldopamine], the “alteration of ocular function” value in the experiment on ocular function is “may alter ocular function”.

As to `CCCN(CCc1cccs1)C1CCc2c(O)cccc2C1` (centres unmarked), the Ki at α2-adrenergic receptors came to 190 nM; on D2 receptors, 110 nM; at D1 receptors it was 1000 nM.

For the molecule `CCCN(CCc1cccs1)C1CCc2c(O)cccc2C1` (racemic) [2-(N-propyl-N-2-thienylethylamino)-5-hydroxytetralin], on D-2 dopamine receptor [3], the Kd amounted to 1.6 nM. The bmax on D-2 dopamine receptor [3] (tritium-containing racemic mixture, calf brain corpus striatum homogenates) was found to be 26.0 picomoles/gm.

In the case of `CCCN(CCc1ccc2ccccc2c1)C1CCc2c(O)cccc2C1` (centres unmarked), the Ki came to 2500 nM at α2-adrenergic receptors (setting [6]), 80 nM at D2 receptors and 6460 nM at D1 receptors (setting [7]). The “increase in selectivity for D2 receptors” value at D2 receptors is “six and a half-fold”.

Regarding `CC(C)C[C@H]1C(=O)N2CCC[C@H]2[C@]2(O)O[C@](NC(=O)[C@@H]3C=C4c5cccc6[nH]c(Br)c(c56)C[C@H]4N(C)C3)(C(C)C)C(=O)N12` [bromocriptine], the intraocular pressure entry with intraocular pressure [1] was “lower the intraocular pressure of rabbits”; with intraocular pressure [4], “may lower intraocular pressure”.

As to `CCCN(CCc1cc2ccccc2s1)C1CCc2c(O)cccc2C1` (centres unmarked) [Example 2, 2-(N-n-propyl-N-2-[2-benzothienyl]ethylamino)-5-hydroxytetralin], the IC50 was 0.56 nM at D-2 dopamine receptor [3] (D-2, calf brain corpus striatum homogenates, read-out: IC50 (concentration of drug required to inhibit the binding of labelled drug by 50 percent)) and > 100000 nM at D-1 dopamine receptor (D-1, tritium labeled SCH 23390, read-out: 1C50 value at the D-1 receptor). Besides, the “D-2 as opposed to D-1 binding selectivity” value at D-2 dopamine receptor [3] (comparison of D-2 and D-1 binding) was “extremely selective D-2 as opposed to D-1 binding”. Also, the “displacement of tritium labeled SCH 23390” value at D-1 dopamine receptor (concentration range 10^-11 to 10^-4 moles) is reported as “did not displace”.

For `CCCN(CCc1csc2ccccc12)C1CCc2c(O)cccc2C1` (centres unmarked), the Ki stood at 250 nM at α2-adrenergic receptors (setting [6]), 130 nM on D2 receptors and 1950 nM at D1 receptors (setting [7]). Also, the “increase in selectivity for D2 receptors” value on D2 receptors is recorded as “two-fold”.

For the molecule `CN1CCc2cccc3c2[C@H]1Cc1ccc(O)c(O)c1-3` [apomophine], the “binding at the D-1 and D-2 receptor (comparison substances)” value at D-2 dopamine receptor [5] was “substantially equivalent binding at the D-1 and D-2 receptor”.

Take `NCCc1ccc(O)c(O)c1` [dopamine]: the “binding at the D-1 and D-2 receptor (comparison substances)” value at D-2 dopamine receptor [5] is “substantially equivalent binding at the D-1 and D-2 receptor”.

Take `CN(C)CCc1ccc(O)c(O)c1` [N,N-dimethyl-dopamine]: the “alteration of ocular function” value with ocular function is listed as “may alter ocular function”.

In the case of `CNCCc1ccc(O)c(O)c1` [N-methyldopamine], in the experiment with ocular function, the “alteration of ocular function” value was “may alter ocular function” and the “mechanism: aqueous humor formation” value is reported as “suppressing aqueous humor formation”.
